Laboratory results: patent US6610535B1, “Progenitor cells and methods and uses related thereto” (ES Cell International Pte Ltd., priority 2000, dated 2003)
Entries after “also recorded” stand apart in the source; their conditions may differ. Where two headings read alike, the source gives them in different places. Where no end group is shown, it is not given here.

Experiments:
Assay type in all cases: cell-based, rat
NACs = assay: Calcium imaging (Fluo-3) of glucose-induced calcium current in NACs; conditions: Fluo-3, confocal microscopy
Description: Cells were then washed to remove excess dye and placed onto a heated microscope stage (Olympus) and maintained at 32° C. Fluo-3 fluorescence intensity was used as an indicator of intracellular calcium concentration and was measured with a confocal laser-scanning microscope (Olympus). The excitation wavelength was set to 488 nm (argon ion laser) and a 40×water lens was used. The same parameters for laser scanning were set for each experiment, including confocal aperture and laser intensity. The laser scanning was performed as an XYT series with an interval of 10 seconds between each scan in order to resolve glucose-induced changes in intracellular calcium. The imaging files were stored and subsequently analyzed with FLUOVIEW software (Olympus). Cells of interest were circled and the mean intensity of the circled areas was plotted over time.

duct monolayer = assay: Induction of non-adherent cells (NACs, floating progenitor cells) from confluent pancreatic duct monolayer culture
duct spheres = assay: Duct sphere differentiation after growth with added factors, immunohistochemistry; conditions: LIF in growth culture medium in addition to six growth factors
Description: Ducts are dissociated into single cells by the dissociation enzyme cocktail containing 1.33 mg/ml Trypsin, 0.7 mg/ml Hyaluronidase, 0.2 mg/ml Kynerenic Acid, and 200 U/ml DNase and plated into sphere culture media (culture media containing 10 ng/ml bFGF, 20 ng/ml EGF, 40 ng/ml HGF, 8 ng/ml TGF α, 30 ng/ml IGF-I and IGF-II, 2% B27 supplements (Gibco/BRL), 8 mM HEMES, 2 mM Glutamine, 100 U/ml penicillin and 100 ug/ml streptomycin in DMEM-F12 medium). After two days in culture, the primary spheres were taken onto HTB-9 matrix in the differentiation media (5% FBS in Iscove Media containing 200 ng/ml PYY and 30 uM Forskolin) for 4 days differentiation. The cells are fixed by 1% PFA followed by IHC analysis.

duct cultures = assay: Immunostaining for insulin in duct cultures; conditions: FIG. 12; 48 hours in varying secretin doses
[1] = factor added to day 5 duct monolayer, 48 hours

O=CC[C@@H](O)[C@H](O)[C@H](O)CO [2-deoxyglucose]
effect on calcium current in NACs (NACs): not induced

CCCC(=O)Nc1ncnc2c1ncn2[C@@H]1O[C@@H]2COP(=O)(O)O[C@H]2[C@H]1OC(=O)CCC [Dibutyrl cAMP, dibutyryl-cAMP, reference compound]
induction of differentiation of duct monolayer (duct monolayer; duct monolayer culture): found to induce differentiation
effect on NAC / floating progenitor cell generation (duct monolayer; [1]): can substitute for DCE

O=C(O)CN(CCOCCOCCN(CC(=O)O)CC(=O)O)CC(=O)O [EGTA]
effect on calcium current in NACs (NACs): inhibited

CCCC(=O)[O-].[Na+] [Na-Butyrate, sodium butyrate, reference compound]
effect on NAC / floating progenitor cell generation (duct monolayer): can substitute for DCE
induction of differentiation of duct monolayer (duct monolayer): found to induce differentiation

CC1=NS(=O)(=O)c2cc(Cl)ccc2N1 [diazoxide]
effect on calcium current in NACs (NACs): completely inhibited

CCCCNC(=O)NS(=O)(=O)c1ccc(C)cc1 [tolbutamide]
effect on calcium current in NACs (NACs): activated; also recorded: stimulated a calcium current

Cholera toxin [reference compound]
effect on NAC / floating progenitor cell generation (duct monolayer): majority of the activity
induction of differentiation of duct monolayer (duct monolayer): found to induce differentiation

EGF: epidermal growth factor (NSDSECPLSHDGYCLHDGVCMYIEALDKYACNCVVGYIGERCQYRDLKWWELR; UniProt P01133 971-1023, looked up)
effect on NAC / floating progenitor cell generation (duct monolayer; [1]): neither dexamethasone nor EGF alone had significant effects

HGF: hepatocyte growth factor
effect on NAC / floating progenitor cell generation (duct monolayer; [1]): only slight effects

LIF: leukemia inhibitory factor
insulin positive cells upon differentiation (duct spheres): many fewer
relative amount of Somatostatin positive cells upon differentiation (duct spheres): greatly increased

TGFβ1: growth factor TGFβ1
effect on NAC / floating progenitor cell generation (duct monolayer; [1]): only slight effects

VIP: Vasoactive Intestinal Peptide (HSDAVFTDNYTRLRKQMAVKKYLNSILN-NH2; ends and bridges not checked; UniProt P01282 125-152, looked up)
increase in number of floating progenitor cells versus control (duct monolayer; FIG. 13, 50 ng/ml, 48 hours, control 5% FCS): > 3 fold
optimal dosage for induction of floating progenitor cells (duct monolayer; FIG. 13, 48 hours of treatment): 50 ng/mL
effect on NAC / floating progenitor cell generation (duct monolayer; [1]): inducing the appearance of floating progenitor cells

forskolin [reference compound]
effect on NAC / floating progenitor cell generation (duct monolayer): can substitute for DCE
induction of differentiation of duct monolayer (duct monolayer): found to induce differentiation

insulin: hormone insulin added to culture
effect on secretin-induced induction of floating progenitor cells (duct monolayer; FIG. 14, insulin 10 ng/ml added simultaneously with secretin 100 nM): diminished

secretin: secretin
induction of differentiation of duct monolayer (duct monolayer; duct monolayer culture): can induce differentiation
effect on NAC / floating progenitor cell generation (duct monolayer; [1]): dose dependent increase
number of insulin positive cells in the monolayer (duct cultures): increases with secretin dose
